Measurements: patent publication US9517200B2, “Methods of delivering pharmaceutical agents” (Massachusetts Eye and Ear Infirmary, priority 2011, dated 2016)

System: 6-hydroxydopamine (6-OHDA) injury Parkinson's Disease mouse model
Assay: Apomorphine-induced rotational behavior in unilateral striatal 6-OHDA injury mice
Assay type: in vivo
Conditions: intraperitoneal injection, 300 μL, 0.065 mg/mL, two weeks post-injury
Method: The details of these experiments are described below.
The mice underwent unilateral striatal 6-hydroxydopamine (6-OHDA) injection (3.2 μg/μL, 0.5 μL/min) according to Francardo et al. (Neurobiol. Dis. 42:327-340, 2011). […] The placement of a SEM graft over the skull of the mice was performed as described above. The duration of rotational behavior was determined in the treated mice.
The position of the mice was recorded by a camera (while they move freely in an arena). The number of contralateral rotations per minute was quantified using a custom analysis program written in Matlab and C++. Statistical analyses were performed using a Student's t-test to compare results between treatment groups (Stata v6.0).

SMILES: CN1CCc2cccc3c2[C@H]1Cc1ccc(O)c(O)c1-3 [apomorphine]
- rotational behavior (contralateral turns per minute): increased
